The values that follow come from patent US6177592A, “Compounds” (priority 1997, dated 2001).

The structures appear in SMILES notation. Entries after “also recorded” stand apart in the source; their conditions may differ.

In assay [1] the test system is HL-60 cells. Nature of the assay: MTT growth inhibition of HL-60. The format is cell-based, human. To be noted: for inhibition activity of the growth of cancer cells (in words): Example 5; for activity at 10 µM / activity at 20 µM / activity at 40 µM: read-out: degree of cell growth (ratio of absorbance at 590 nm of sample-added section to control). On the procedure: (§1) (2) To each of the wells of a 96-well microtiter plate was added 8, 40, 200 or 1000 μM aqueous solution of GM or 10 μl of water as a control. HL-60 (ATCC CCL-240) was suspended in an RPMI 1640 medium containing 10% of fetal calf serum to make the concentration 5×10^4 cells/ml and each 90 μl thereof was placed in each well of the above-mentioned microtiter plate and incubated at 37° C. for 48 hours in the presence of 5% carbon dioxide. Incubation was conducted for four hours more after addition of 10 μl of a solution (5 mg/ml) of 3-(4,5-dimethylthiazol-2-yl)-2,5-diphenyltetrzolium bromide (MTT; manufactured by Sigma) in a phosphate-buffered saline solution and the state of growth of the cells was observed under a microscope. Further, 100 μl of 2-propanol containing 0.04N hydrochloric acid was added followed by stirring and an absorbance at 590 nm was measured.
(3) To each well of the 96-well microtiter plate was added 100, 200 or 400 μM aqueous solution of GM or CM or 10 μl of water as a control and the inhibition activity of growth of HL-60 was measured by the same method as mentioned in Example 5-(2). The degree of cell growth was, however, expressed in terms of the ratio (%) of the absorbance at 590 nm of the sample-added section to that of the water-added section (the control).
(§2) (5) To each well of the 96-well microtiter plate was added 4.12, 12.3, 37.0, 111, 333 or 1000 μM aqueous solution of GD or 10 μl of water as a control. HL-60 (ATCC CCL-240) was suspended in an RPMI 1640 medium containing 10% of fetal calf serum to make the concentration 5×10^4 cells/ml and each 90 μl thereof was placed in each well of the above-mentioned microtiter plate followed by incubating at 37° C. for 48 hours in the presence of 5% carbon dioxide gas. The incubation was conducted for four hours more after addition of 10 μl of 5 mg/ml solution of 3-(4,5-dimethylthiazol-2-yl)-2,5-diphenyltetrazolium bromide (MTT; manufactured by Sigma) in a phosphate-buffered saline solution and the state of growth of the cells was observed under a microscope. In the meanwhile, 100 μl of 2-propanol containing 0.04N HCl was added followed by well stirring and the absorbance at 590 nm was measured.
(6) Cyclopentenone and L-cysteine hydrochloride were dissolved in a phosphate buffered saline solution (pH 7.2) to make their concentrations 55 mM and 80 mM, respectively and made to react at 37° C. for 15 minutes at pH 7.2. Apart of the reaction solution was analyzed by a reversed phase HPLC using a column of TSK gel ODS-80Ts (4.6 mm×250 mm; manufactured by Tosoh)at the flow rate of 1 ml/minute using 0.1% aqueous solution of trifluoroacetic acid as a mobile phase whereupon no cyclopentenone was detected. This reaction solution was a solution containing 55 mM of CD.
Degree of cell growth was, however, expressed in terms of the ratio (%) of the absorbance at 590 nm of the section to which the sample was added to that of the control where water was added.

The subject of assay [2] is HL-60 cells. In words: Apoptosis in HL-60 cells (apoptic bodies, DNA fragmentation). The class given is cell-based, human. To be noted: at each of the cell-growth-inhibiting concentrations. On the procedure: (1) Each 0.5 ml of 0.2 mM CM, 0.8 mM CM or 1.6 mM CM was added to 4.5 ml of RPMI 1640 medium containing 10% of fetal calf serum and 2.5×10^5HL-60 cells (promyelocytic leukemia cell) (ATCC CCL-240) and incubated at 37° C. for 24 hours or 48 hours in the presence of 5% carbon dioxide gas and the numbers of viable cells were measured.
as §1
(4) HL-60 cells (ATCC CCL240) which were incubated at 37° C. in an RPMI 1640 medium (manufactured by Nissui) containing 10% of fetal calf serum (manufactured by Gibco) treated at 56° C. for 30 minutes were suspended in the above medium to make the concentration 2.5×10^5cells/4.5 ml. To this suspension was added 0.5 ml of 100 μM aqueous solution of GM (final concentration: 10 μM) followed by incubating at 37° C. in the presence of 5% carbon dioxide gas for 24 hours, 48 hours and 72 hours.
as §2

The test system of assay [3] is mouse leukemia P-388. In words: Mouse leukemia P-388 survival (macrobiotic effect) in DBA/2 mice. The class given is in vivo. To be noted: 10 mg/kg/day i.p., five days. The method, then:
GM was diluted with a physiological saline solution to a predetermined concentration and subjected to the following tests.
(2) Mouse leukemia P-388 (1.1×10^6 cells/mouse) was intraperitoneally injected to female DBA/2 mice (body weight: about 20 g) of seven weeks age. After that, GM, CM, GD or CD (10 mg/kg/day) was intraperitoneally injected for consecutive five clays. In the meanwhile, a physiological saline solution was intraperitoneally injected to the control group by the same manner. In the two group each consisting of eight mice, survived numbers, average survived days and macrobiotic rate of the mice were calculated.

Assay [4] concerns Sarcoma-180. In words: Sarcoma-180/ICR mice macrobiotic effect. The format is in vivo.
Assay [5] relates to IMC. Nature of the assay: IMC/CDF1 mice macrobiotic effect. The format is in vivo.
For assay [6], the system named is EAC. Nature of the assay: EAC/DDY mice macrobiotic effect. The format is in vivo.
The test system of assay [7] is Bacillus subtilis IFO 3021. Nature of the assay: Antibacterial activity, viable cell numbers. The class given is cell-based. To be noted: compared with GM. On the procedure: Bacillus subtilis IFO 3021 was incubated (by mans of a seed culture) overnight in a sensitive bouillon medium (manufactured by Nissui). Absorbance at 600 nm was measured and viable cell numbers were calculated from the previously-prepared calibration curve showing the relation between the viable cell numbers and absorbance at 600 nm. The seed-cultured liquid was diluted with a fresh sensitive bouillon medium to make the concentration 1×10^6 cells/ml and each 180 μl thereof was placed in each well of the 96-well microtiter plate. Each 20 μl of aqueous solution of GM (4 mg/ml or 2 mg/ml) or water was added to each well followed by allowing to a stationary culture at 37° C. for one night (main incubation) In the meanwhile, a part of the seed culture liquid was diluted with sterilized water, spread onto a sensitive bouillon agar plate medium and incubated at 37° C. for one night and the colonies were counted to measure the precise viable cell numbers.
The cultured liquid in each of the wells was diluted with sterilized water, spread onto a sensitive bouillon agar plate medium and incubated at 37° C. for one night and the colonies were counter to measure the viable cell numbers.

The test system of assay [8] is HSP70. To be noted: cited from earlier work.
For assay [9], the system named is vesicular stomatitis virus protein. To be noted: Rossi et al., J. Biol. Chem. 271, 32192 (1996); cited from earlier work.
The test system of assay [10] is HSP70 and HSP90. To be noted: Amici et al., J. Virology 68, 6890 (1994); cited from earlier work.
For assay [11], the system named is Sendai virus protein synthesis. To be noted: Amici et al., J. Virology 68, 6890 (1994); cited from earlier work.

In the case of `N[C@@H](CCC(=O)N[C@@H](CSC1CC(=O)C(O)C1O)C(=O)NCC(=O)O)C(=O)O` (some centres unmarked) [GD, 2,3-dihydroxy-4-glutathion-S-yl-cyclopentanone], in assay [1], the “inhibition activity of the growth of cancer cells (in words)” value is “inhibition activity of the growth of cancer cells”. Further, in assay [1] (Homo sapiens, HL-60, 48 hours), the activity at 10 µM turned out to be 47.2%, the activity at 20 µM was found to be 5.8% and the activity at 40 µM was 2.1%. Further, the IC100 in assay [1] (Homo sapiens, HL-60, 48 hours, MTT, final concentration, read-out: concentration at which growth of HL-60 cells was completely inhibited) was determined as 3.7 µM. For the same molecule, in assay [2], the “apoptic bodies in the cells” value is on record as “apoptic bodies were detected; also recorded: Apoptic bodies were produced in the cells”. In [3], the “macrobiotic effect (average survived days)” value is given as “significant macrobiotic effect”. Further, the macrobiotic effect entry in assay [4] is given as “same macrobiotic effect”. Further, in assay [5], the macrobiotic effect entry was “same macrobiotic effect”. Also, the macrobiotic effect result in assay [6] is on record as “same macrobiotic effect”. Further, the “antibacterial activity (in words)” value in [7] is listed as “same results”.
Turning to `N[C@@H](CSC1CC(=O)C(O)C1O)C(=O)O` (some centres unmarked) [CD], the “inhibition activity of the growth of cancer cells (in words)” value in assay [1] is “inhibition activity of the growth of cancer cells”. For the same molecule, in assay [1] (Homo sapiens, HL-60, 48 hours), the activity at 10 µM came to 89%, the activity at 20 µM worked out at 56.2% and the activity at 40 µM turned out to be 5.3%. In addition, in [2], the “apoptic bodies in the cells” value is reported as “Apoptic bodies were produced in the cells”. Moreover, the “macrobiotic effect (average survived days)” value in assay [3] is “significant macrobiotic effect”. In addition, in assay [4], the macrobiotic effect entry is listed as “same macrobiotic effect”. Further, in assay [5], the macrobiotic effect entry is “same macrobiotic effect”. Moreover, the macrobiotic effect entry in assay [6] is “same macrobiotic effect”. Also, the “antibacterial activity (in words)” value in assay [7] is on record as “same results”.
For `O=C1C=CCC1` [2-cyclopenten-1-one], in assay [8] (Rossi et al., J. Biol. Chem. 271, 32192 (1996)), the “synthesis of HSP70” value was “induces the synthesis of HSP70”. Besides, the “concentration required for inducing the HSP70” value in assay [8] is given as “several hundred”. Also, the “synthesis of vesicular stomatitis virus protein” value in assay [9] was “inhibits the synthesis of vesicular stomatitis virus protein”.
On to `CCCCC[C@H](O)/C=C/[C@H]1C=CC(=O)[C@@H]1CCCCCCC(=O)O` [prostaglandin Al], for which, in [10], the “synthesis of HSP70 and HSP90” value was “synthesis of HSP70 and HS?90 is induced”. In assay [11], the “synthesis of virus protein” value is recorded as “synthesis of virus protein is inhibited”.
